{"source": "paper PMC9467556", "about": "“Identification of novel pyrrolopyrimidine and pyrrolopyridine derivatives as potent ENPP1 inhibitors” (Journal of Enzyme Inhibition and Medicinal Chemistry, 2022)", "key": {"[1]": {"target": "CYP2D6 (Homo sapiens, UniProt P10635)", "sequence (P10635 whole entry)": "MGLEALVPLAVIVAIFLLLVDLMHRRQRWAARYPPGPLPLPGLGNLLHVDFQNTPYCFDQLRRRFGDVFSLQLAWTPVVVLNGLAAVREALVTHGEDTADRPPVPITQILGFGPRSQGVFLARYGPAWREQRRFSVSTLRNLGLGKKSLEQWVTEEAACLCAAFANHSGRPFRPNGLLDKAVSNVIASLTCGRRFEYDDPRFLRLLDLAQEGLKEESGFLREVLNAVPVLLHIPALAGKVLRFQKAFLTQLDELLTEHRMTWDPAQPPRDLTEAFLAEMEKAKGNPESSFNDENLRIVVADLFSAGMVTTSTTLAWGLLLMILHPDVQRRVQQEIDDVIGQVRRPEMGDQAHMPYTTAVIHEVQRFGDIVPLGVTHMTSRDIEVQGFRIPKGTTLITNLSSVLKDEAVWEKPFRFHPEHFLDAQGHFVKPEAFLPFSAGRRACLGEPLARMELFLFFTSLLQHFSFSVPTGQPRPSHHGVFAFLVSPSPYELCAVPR", "test": "CYP inhibition profile", "type": "in vitro ADME", "conditions": "compound 10 μM", "excerpt": "Table 3. CYP inhibition profile. | column: % inhibition / CYP2D6"}, "[2]": {"test": "pharmacokinetics in BALB/c mice", "type": "in vivo"}, "[3]": {"test": "liver microsomal stability", "type": "in vitro ADME, mouse", "conditions": "% remaining during 30 min at 1 µM"}, "[4]": {"target": "CYP3A4 (Homo sapiens, UniProt P08684)", "sequence (P08684 whole entry)": "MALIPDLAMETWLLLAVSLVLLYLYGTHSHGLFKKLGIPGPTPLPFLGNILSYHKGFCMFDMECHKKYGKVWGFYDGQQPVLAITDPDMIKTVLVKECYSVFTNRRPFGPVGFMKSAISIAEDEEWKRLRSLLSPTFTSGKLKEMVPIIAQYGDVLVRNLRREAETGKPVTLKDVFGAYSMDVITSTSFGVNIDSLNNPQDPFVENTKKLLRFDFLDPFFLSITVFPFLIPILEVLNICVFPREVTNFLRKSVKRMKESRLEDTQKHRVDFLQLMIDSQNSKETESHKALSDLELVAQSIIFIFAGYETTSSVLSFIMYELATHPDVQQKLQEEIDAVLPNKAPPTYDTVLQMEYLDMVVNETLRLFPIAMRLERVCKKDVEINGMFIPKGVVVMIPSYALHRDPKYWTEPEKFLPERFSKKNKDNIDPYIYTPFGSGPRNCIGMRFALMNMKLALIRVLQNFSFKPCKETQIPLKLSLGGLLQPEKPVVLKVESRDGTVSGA", "test": "CYP inhibition profile", "type": "in vitro ADME", "conditions": "compound 10 μM", "excerpt": "Table 3. CYP inhibition profile. | column: % inhibition / CYP3A4"}, "[5]": {"tested_on": "phosphorylation of IRF3 in THP-1 cells", "test": "western blot of STING downstream signalling", "type": "cell-based, human", "conditions": "cGAMP (1 μg/mL) then 18p, 6 h", "experimental": "(§1) To evaluate whether 18p induced desired immune response via activation of STING pathway, we investigated the activation of downstream effector proteins, IRF3 and STAT1 that were known as major regulatory proteins of STING and IFN-β, respectively.\n(§2) Figure 6. Western blot analysis for STING downstream signalling pathway. THP-1 cells were treated with cGAMP (1 μg/mL) first, and then treated with either DMSO or 18p at indicated concentration for 6 h. Tubulin was used as a loading control.\n(§3) Cells were washed by PBS and harvested with RIPA buffer (Bioseasang). After centrifugation with 20,000 × g for 20 min at 4 °C. Cell lysates were separated by SDS-polyacrylamide gel electrophoresis and transferred on PVDF membranes through the Trans-Blot Turbo Transfer System (Bio-Rad). The membranes were blocked in 5% BSA in TBST for 1 h at room temperature and followed by incubation with primary antibody solution for overnight. […] After washing with TBST, all antibodies were detected by anti-rabbit-HRP-linked secondary antibody (Cell signalling/no. 7074, 1:3000). β-Tubulin was used as a loading control for the amount of total protein. Luminescence signal was detected using ECL reagent and immunoreactive bands were captured with the ChemiDoc imaging systems (Bio-Rad)."}, "[6]": {"tested_on": "phosphorylation of STAT1 in THP-1 cells", "test": "western blot of STING downstream signalling", "type": "cell-based, human", "conditions": "cGAMP (1 μg/mL) then 18p, 6 h", "experimental": "as §1, §2, §3"}, "[7]": {"tested_on": "IP-10 secretion in THP-1 cells", "test": "IP-10 cytokine secretion by ELISA", "conditions": "co-treatment with cGAMP, 8 h"}, "[8]": {"target": "CYP2C19 (Homo sapiens, UniProt P33261)", "sequence (P33261 whole entry)": "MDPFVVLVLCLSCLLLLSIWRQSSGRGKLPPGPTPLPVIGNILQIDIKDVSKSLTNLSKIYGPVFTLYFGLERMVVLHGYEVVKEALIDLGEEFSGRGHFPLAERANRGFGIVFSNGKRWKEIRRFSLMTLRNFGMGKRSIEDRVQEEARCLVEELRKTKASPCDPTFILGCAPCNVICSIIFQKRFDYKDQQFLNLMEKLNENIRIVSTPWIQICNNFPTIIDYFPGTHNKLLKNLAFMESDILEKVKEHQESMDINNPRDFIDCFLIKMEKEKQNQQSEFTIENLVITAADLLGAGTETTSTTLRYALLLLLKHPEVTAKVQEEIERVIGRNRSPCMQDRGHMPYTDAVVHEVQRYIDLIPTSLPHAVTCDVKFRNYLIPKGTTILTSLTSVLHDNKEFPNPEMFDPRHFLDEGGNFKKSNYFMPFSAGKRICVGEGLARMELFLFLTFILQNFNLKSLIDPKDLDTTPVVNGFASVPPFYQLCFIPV", "test": "CYP inhibition profile", "type": "in vitro ADME", "conditions": "compound 10 μM", "excerpt": "Table 3. CYP inhibition profile. | column: % inhibition / CYP2C19"}, "[9]": {"target": "CYP2C9 (Homo sapiens, UniProt P11712)", "sequence (P11712 whole entry)": "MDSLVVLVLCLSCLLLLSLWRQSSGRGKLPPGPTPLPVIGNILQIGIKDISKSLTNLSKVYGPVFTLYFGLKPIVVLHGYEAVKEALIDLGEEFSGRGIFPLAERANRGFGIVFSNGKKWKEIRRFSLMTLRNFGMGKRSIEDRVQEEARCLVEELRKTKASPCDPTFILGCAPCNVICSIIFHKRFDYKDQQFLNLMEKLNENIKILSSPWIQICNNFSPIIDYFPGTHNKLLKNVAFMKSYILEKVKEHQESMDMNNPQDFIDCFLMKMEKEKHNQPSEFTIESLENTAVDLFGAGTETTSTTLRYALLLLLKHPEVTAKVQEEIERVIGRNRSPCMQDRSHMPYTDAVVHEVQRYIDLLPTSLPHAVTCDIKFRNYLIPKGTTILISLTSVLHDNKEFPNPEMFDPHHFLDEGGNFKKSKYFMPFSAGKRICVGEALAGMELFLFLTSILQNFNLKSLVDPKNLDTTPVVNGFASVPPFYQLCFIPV", "test": "CYP inhibition profile", "type": "in vitro ADME", "conditions": "compound 10 μM", "excerpt": "Table 3. CYP inhibition profile. | column: % inhibition / CYP2C9"}, "[10]": {"tested_on": "THP-1 cells", "test": "cell viability assay (MTS)", "type": "cell-based, human", "conditions": "all concentrations tested", "experimental": "Cell viability assay was performed using residual cells after luciferase assay. Cells were analysed using CellTiter 96 Aqueous One Solution Proliferation Assay (MTS, Promega) according to the manufactural protocols. Absorbance signal were measured using microplate reader (TECAN). Results were normalized using DMSO as a control."}, "[11]": {"test": "body weight in 4T1 syngeneic mouse tumour model", "type": "in vivo, BALB/c mice", "conditions": "40 mg/kg orally once daily, two weeks, 4T1 tumour-bearing mice", "experimental": "Thus, we evaluated the anti-cancer efficacy in the 4T1 syngeneic mouse tumour model to test the therapeutic potential of 18p. We postulated the marginal amount of cGAMP released by tumour could initiate the synergy effect of 18p, then administrated the compound by single-treatment[5]. After 4T1 tumour cells were implanted and grown in the flank of mice, 18p was orally administered (40 mg/kg) once daily and monitored the tumour volume and body weight of each mouse.\nFigure 7. 4 × 10^5 of 4T1 cells were subcutaneously inoculated into right side flank of BLAB/c mice (n = 6). Mice were orally administrated by 18p (40 mg/kg) or vehicle by every day. (a) Tumour growth curve of 18p or vehicle. X-axis indicates days after treatment. (b) Tumour growth (%) on day 14. (c) Body weight of 18p or vehicle. X-axis indicates days after treatment. Statistics for tumour volume and tumour growth were analysed by 2way ANOVA and student t-test. *p < 0.05. **p < 0.01. Graphs are depicted by mean and SD.\nThe study for murine 4T1 […] was approved by the Institutional Animal Care and Use Committee (IACUC) of the Korea Institute of Science and Technology (KIST-2021–04-048). Female BALB/c mice were 8 weeks obtained from DBL (Korea). […] Tumour volume was calculated by following formula: Tumour volume (mm^3) = 0.5 × [length, (mm) × width, (mm)2]."}, "[12]": {"tested_on": "interferon stimulated genes (ISG) CXCL10, OAS1, IFITM1 in THP-1 cells", "test": "real-time PCR of interferon stimulated genes", "type": "cell-based, human", "conditions": "co-treatment with cGAMP, 4 h, normalized by GAPDH", "experimental": "Next, we further explored type I IFN response induced by activation of STING signalling. The gene expression for various interferon stimulated genes (ISGs) such as CXCL10, OAS1, and IFITM1 was analysed by real-time PCR.\nFigure 5. Real-time PCR analysis for gene expression of various interferon stimulated genes (ISG), CXCL10, OAS1, and IFITM1. THP-1 cells were stimulated by indicated concentration of 18p for 4 h. The relative gene expression level was normalized by GAPDH as an internal standard. Graphs depict mean and RQ max values.\nCells were harvest and RNA were isolated using NucleoSpin RNA plus (MN) according to the manufacturer’s instructions. Genomic DNA was removed and cDNA was synthesised using an iScript gDNA clear cDNA synthesis kit (Bio-Rad). Expression levels were assessed by real-time PCR (CFX96 Real-Time PCR detection system, Bio-rad) using IQ SYBR green Supermix (Bio-Rad). The mRNA levels were normalized by GAPDH and calculated by comparative Ct method."}}, "note": "Counter-ions that a name gives are not always drawn."}
{"molecule": "CC1(CNS(N)(=O)=O)CCN(c2ncnc3[nH]ccc23)CC1", "note": "[18p, N-((4-Methyl-1-(7H-pyrrolo[2,3-d]pyrimidin-4-yl)piperidin-4-yl)methyl)methanesulfamide hydrochloride]", "values": [{"measurement": "% inhibition CYP2D6", "setting": "[1]", "value": 0.5, "unit": "%"}, {"measurement": "CI", "setting": "[2]; IV, 1 mg/kg", "value": 125, "unit": "mL/min/kg"}, {"measurement": "AUC", "setting": "[2]; mouse, plasma, IV, 1 mg/kg", "value": 126, "unit": "ng·h/mL"}, {"measurement": "AUC(0-t)", "setting": "[2]; mouse, plasma, IV, 1 mg/kg", "value": 125, "unit": "ng·h/mL"}, {"measurement": "Cmax", "setting": "[2]; mouse, plasma, IV, 1 mg/kg", "value": 303, "unit": "ng/mL"}, {"measurement": "Tmax", "setting": "[2]; mouse, plasma, IV, 1 mg/kg", "value": 4.98, "unit": "min"}, {"measurement": "half-life", "setting": "[2]; mouse, plasma, IV, 1 mg/kg", "value": 15, "unit": "min"}, {"measurement": "Vd", "setting": "[2]; mouse, plasma, IV, 1 mg/kg, read-out: Vss", "value": 2.3, "unit": "L/kg"}, {"measurement": "bioavailability", "setting": "[2]; mouse, plasma, PO 10 mg/kg vs IV 1 mg/kg", "value": "> 100", "unit": "%"}, {"measurement": "AUC", "setting": "[2]; mouse, plasma, PO, 10 mg/kg", "value": 1700, "unit": "ng·h/mL"}, {"measurement": "AUC(0-t)", "setting": "[2]; mouse, plasma, PO, 10 mg/kg", "value": 1690, "unit": "ng·h/mL"}, {"measurement": "Cmax", "setting": "[2]; mouse, plasma, PO, 10 mg/kg", "value": 1550, "unit": "ng/mL"}, {"measurement": "Tmax", "setting": "[2]; mouse, plasma, PO, 10 mg/kg", "value": 30, "unit": "min"}, {"measurement": "half-life", "setting": "[2]; mouse, plasma, PO, 10 mg/kg", "value": 93.6, "unit": "min"}, {"measurement": "Microsomal stability (%) Mouse", "setting": "[3]", "value": 83, "unit": "%"}, {"measurement": "% inhibition CYP3A4", "setting": "[4]", "value": 8.9, "unit": "%"}, {"measurement": "phosphorylation of IRF3", "setting": "[5]", "value": "increased phosphorylation of IRF3 and STAT1 was observed in dose-dependent manner"}, {"measurement": "phosphorylation of STAT1", "setting": "[6]", "value": "increased phosphorylation of IRF3 and STAT1 was observed in dose-dependent manner"}, {"measurement": "IP-10 cytokine secretion", "setting": "[7]", "value": "secreted more cytokine than with cGAMP alone"}, {"measurement": "% inhibition CYP2C19", "setting": "[8]", "value": 10.3, "unit": "%"}, {"measurement": "% inhibition CYP2C9", "setting": "[9]", "value": 0.0, "unit": "%"}, {"measurement": "cell viability / toxicity", "setting": "[10]", "value": "no obvious toxicity"}, {"measurement": "body weight", "setting": "[11]", "value": "no weight loss"}, {"measurement": "gene expression of interferon stimulated genes (CXCL10, OAS1, IFITM1)", "setting": "[12]", "value": "induced expression of all ISG genes we tested"}]}
